# Biological target: tubulin
# Test: inhibition of [3H]vinblastine binding
# Parameters: species or system Bos taurus
structure (smiles),measurement,value
C/C=C/C(O)C(C)(C)[C@@H]1C\C=C/C=C\C=C/[C@H](OC)Cc2nc(co2)C(=O)O[C@H](C(C)(C)C(O)/C=C/C)C/C=C\C=C/C=C[C@H](OC)Cc2nc(co2)C(=O)O1 (stereo partly shown) [disorazole C1],Ki,4.5 ± 0.6 µM

# — article PMC2649750 (The Journal of pharmacology and experimental therapeutics, 2008)
